{"source": "patent US20250003989A1", "about": "“METHODS FOR TAUOPATHY DIAGNOSIS AND TREATMENT” (The Children`s Medical Center Corporation, priority 2021, published 2025)", "test_system": "naïve Tau", "sequence (as listed by the source)": "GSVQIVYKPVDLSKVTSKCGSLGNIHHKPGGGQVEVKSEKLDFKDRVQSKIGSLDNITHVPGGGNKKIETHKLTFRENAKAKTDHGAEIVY", "test": "In vitro second generation seeding without heparin, ThT assay", "details": "equimolar effective concentration of heparin as contained in the catalytic amount of 2b seed", "description": "Seeds were generated following the procedure described above at 50 μM protein concentration. The sample was vigorously pipetted to evenly disperse fibrils, and was added at a 2.5 mol % (1.25 μM protein concentration) to a 50 μM sample of new protein. Aggregation was followed with ThioflavinT assays. Thioflavin T (ThT) assays for Beta-sheet content were conducted with 50 μM protein content, and […] ThT in a 384-well Corning plate. A BioTek synergy2 plate reader was used with temperature control set at 37° C.", "data": [{"substance": "heparin", "values": [{"measurement": "ThT fluorescence, heparin-only control", "result": "no detectable ThT fluorescence"}]}]}
